Assay results reported in patent publication US12643882B2, “Inhibitors of human respiratory syncytial virus and metapneumovirus” (priority 2022, dated 2026).
Where two headings read alike, the source gives them in different places.

What was measured:
[1] = system: hMPV-GFP virus; assay: microbe, parasite or virus in culture; assay type: cell-based, human metapneumovirus
How it was run: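 VERO cells infected with GFP-expressing hMPV at MOI 1.25 were incubated 48 h at 37 °C with compound in 10-point 3-fold dilutions (typically 40,300–2 nM final). GFP-positive cells were counted by imaging. Same-well CellTiter-Glo gave cytotoxicity, and IC50/CC50 came from 4-parameter logistic fits.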

[2] = system: RSV-A2-GFP virus; assay: microbe, parasite or virus in culture; assay type: cell-based, Human Respiratory Syncytial Virus
How it was run: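 Assay-ready frozen Calu-1 cells at 20,000 cells/mL were infected with recombinant RSV-A2-GFP (MOI 1.2) in DMEM with 2% FBS. Cells were exposed to 10-point 3-fold compound dilutions for 96 h at 37° C. GFP-positive cells were counted by imaging, with same-well CellTiter-Glo for cytotoxicity, and IC50 and CC50 came from 4-parameter logistic fits.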

[3] = human metapneumovirus, Vero, 48 h, read-out: hMPV EC50, VERO cells infected with hMPV-GFP, 48 hrs, GFP-expressing cells counted
[4] = human respiratory syncytial virus, Calu-1, 96 h, read-out: RSV EC50, Calu-1 cells infected with RSV-A2-GFP, 96 hrs, GFP-expressing cells counted
[5] = VERO cells infected with hMPV-GFP, 48 hrs, GFP-expressing cells counted, read-out: hMPV EC50
[6] = Calu-1 cells infected with RSV-A2-GFP, 96 hrs, GFP-expressing cells counted, read-out: RSV EC50

Row | SMILES | EC50 [1, 3] [nM] | EC50 [2, 4] [nM] | EC50 [1, 5] [nM] | EC50 [2, 6] [nM]
1 | Cn1nc(-c2ncccn2)cc1C(=O)N1C[C@@H]2[C@H](C1)[C@H]2Oc1cc(C(C)(C)N)cc(-n2ccc3c(F)cccc32)n1 [Example 60, ((1R,5S,6s)-6-((4-(2-aminopropan-2-yl)-6-(4-fluoro-1H-indol-1-yl)pyridin-2-yl)oxy)-3-azabicyclo[3.1.0]hexan-3-yl)(1-methyl-3-(pyrimidin-2-yl)-1H-pyrazol-5-yl)methanone] | 10 to 100 | < 10 |  | 
2 | Cc1nn(-c2ncccn2)cc1C(=O)N1C[C@@H]2[C@H](C1)[C@H]2Oc1cc(C(C)(C)N)cc(-c2ccc(F)cc2)n1 [Example 61, ((1R,5S,6s)-6-((4-(2-aminopropan-2-yl)-6-(4-fluorophenyl)pyridin-2-yl)oxy)-3-azabicyclo[3.1.0]hexan-3-yl)(3-methyl-1-(pyrimidin-2-yl)-1H-pyrazol-4-yl)methanone] | > 100 | < 10 |  | 
3 | COc1nn(-c2ncccn2)cc1C(=O)N1C[C@@H]2[C@H](C1)[C@H]2Oc1cc(C(C)(C)N)cc(-c2ccc(F)cc2)n1 [Example 62, ((1R,5S,6s)-6-((4-(2-aminopropan-2-yl)-6-(4-fluorophenyl)pyridin-2-yl)oxy)-3-azabicyclo[3.1.0]hexan-3-yl)(3-methoxy-1-(pyrimidin-2-yl)-1H-pyrazol-4-yl)methanone] | > 100 | < 10 |  | 
4 | CC(C)(N)c1cc(O[C@H]2[C@@H]3CN(C(=O)c4cnn(-c5ncccn5)c4)C[C@@H]32)nc(-c2ccc(F)cc2)c1 [Example 63, ((1R,5S,6s)-6-((4-(2-aminopropan-2-yl)-6-(4-fluorophenyl)pyridin-2-yl)oxy)-3-azabicyclo[3.1.0]hexan-3-yl)(1-(pyrimidin-2-yl)-1H-pyrazol-4-yl)methanone] |  |  | > 100 | < 10
5 | CCc1nn(-c2ncccn2)cc1C(=O)N1C[C@@H]2[C@H](C1)[C@H]2Oc1cc(C(C)(C)N)cc(-c2ccc(F)cc2)n1 [Example 64, ((1R,5S,6s)-6-((4-(2-aminopropan-2-yl)-6-(4-fluorophenyl)pyridin-2-yl)oxy)-3-azabicyclo[3.1.0]hexan-3-yl)(3-ethyl-1-(pyrimidin-2-yl)-1H-pyrazol-4-yl)methanone] |  |  | > 100 | < 10
6 | CC(C)(N)c1cc(O[C@H]2[C@@H]3CN(C(=O)c4cn(-c5ncccn5)nc4C4CC4)C[C@@H]32)nc(-c2ccc(F)cc2)c1 [Example 65, ((1R,5S,6s)-6-((4-(2-aminopropan-2-yl)-6-(4-fluorophenyl)pyridin-2-yl)oxy)-3-azabicyclo[3.1.0]hexan-3-yl)(3-cyclopropyl-1-(pyrimidin-2-yl)-1H-pyrazol-4-yl)methanone] |  |  | > 100 | < 10
7 | CC(C)(N)c1cc(O[C@H]2[C@@H]3CN(C(=O)c4cn(-c5ncccn5)nc4C(F)F)C[C@@H]32)nc(-c2ccc(F)cc2)c1 [Example 66, ((1R,5S,6s)-6-((4-(2-aminopropan-2-yl)-6-(4-fluorophenyl)pyridin-2-yl)oxy)-3-azabicyclo[3.1.0]hexan-3-yl)(3-(difluoromethyl)-1-(pyrimidin-2-yl)-1H-pyrazol-4-yl)methanone] |  |  | > 100 | < 10
8 | CC(C)(N)c1cc(O[C@H]2[C@@H]3CN(C(=O)c4cn(-c5ncccn5)nc4C(F)(F)F)C[C@@H]32)nc(-c2ccc(F)cc2)c1 [Example 67, ((1R,5S,6s)-6-((4-(2-aminopropan-2-yl)-6-(4-fluorophenyl)pyridin-2-yl)oxy)-3-azabicyclo[3.1.0]hexan-3-yl)(1-(pyrimidin-2-yl)-3-(trifluoromethyl)-1H-pyrazol-4-yl)methanone] |  |  | > 100 | < 10
9 | CCOc1nn(-c2ncccn2)cc1C(=O)N1C[C@@H]2[C@H](C1)[C@H]2Oc1cc(C(C)(C)N)cc(-c2ccc(F)cc2)n1 [Example 68, ((1R,5S,6s)-6-((4-(2-aminopropan-2-yl)-6-(4-fluorophenyl)pyridin-2-yl)oxy)-3-azabicyclo[3.1.0]hexan-3-yl)(3-ethoxy-1-(pyrimidin-2-yl)-1H-pyrazol-4-yl)methanone] |  |  | > 100 | < 10
10 | CC(C)(N)c1cc(O[C@H]2[C@@H]3CN(C(=O)c4cn(-c5ncccn5)nc4OC(F)F)C[C@@H]32)nc(-c2ccc(F)cc2)c1 [Example 69, ((1R,5S,6s)-6-((4-(2-aminopropan-2-yl)-6-(4-fluorophenyl)pyridin-2-yl)oxy)-3-azabicyclo[3.1.0]hexan-3-yl)(3-(difluoromethoxy)-1-(pyrimidin-2-yl)-1H-pyrazol-4-yl)methanone] |  |  | > 100 | < 10
11 | CC(C)(N)c1cc(O[C@H]2[C@@H]3CN(C(=O)c4cn(-c5ncccn5)nc4N)C[C@@H]32)nc(-c2ccc(F)cc2)c1 [Example 70, (3-amino-1-(pyrimidin-2-yl)-1H-pyrazol-4-yl)((1R,5S,6s)-6-((4-(2-aminopropan-2-yl)-6-(4-fluorophenyl)pyridin-2-yl)oxy)-3-azabicyclo[3.1.0]hexan-3-yl)methanone] |  |  | > 100 | < 10
12 | Cc1nn(-c2ncc(F)cn2)cc1C(=O)N1C[C@@H]2[C@H](C1)[C@H]2Oc1cc(C(C)(C)N)cc(-c2ccc(F)cc2)n1 [Example 71, ((1R,5S,6s)-6-((4-(2-aminopropan-2-yl)-6-(4-fluorophenyl)pyridin-2-yl)oxy)-3-azabicyclo[3.1.0]hexan-3-yl)(1-(5-fluoropyrimidin-2-yl)-3-methyl-1H-pyrazol-4-yl)methanone] |  |  | > 100 | < 10
13 | Cc1ccnc(-n2cc(C(=O)N3C[C@@H]4[C@H](C3)[C@H]4Oc3cc(C(C)(C)N)cc(-c4ccc(F)cc4)n3)c(C)n2)n1 [Example 72, ((1R,5S,6s)-6-((4-(2-aminopropan-2-yl)-6-(4-fluorophenyl)pyridin-2-yl)oxy)-3-azabicyclo[3.1.0]hexan-3-yl)(3-methyl-1-(4-methylpyrimidin-2-yl)-1H-pyrazol-4-yl)methanone] |  |  | > 100 | < 10
14 | Cc1nn(-c2ncccn2)c(C)c1C(=O)N1C[C@@H]2[C@H](C1)[C@H]2Oc1cc(C(C)(C)N)cc(-c2ccc(F)cc2)n1 [Example 73, ((1R,5S,6s)-6-((4-(2-aminopropan-2-yl)-6-(4-fluorophenyl)pyridin-2-yl)oxy)-3-azabicyclo[3.1.0]hexan-3-yl)(3,5-dimethyl-1-(pyrimidin-2-yl)-1H-pyrazol-4-yl)methanone] |  |  | > 100 | < 10
15 | Cc1nc(-c2ncccn2)[nH]c1C(=O)N1C[C@@H]2[C@H](C1)[C@H]2Oc1cc(C(C)(C)N)cc(-c2ccc(F)cc2)n1 [Example 75, ((1R,5S,6s)-6-((4-(2-aminopropan-2-yl)-6-(4-fluorophenyl)pyridin-2-yl)oxy)-3-azabicyclo[3.1.0]hexan-3-yl)(4-methyl-2-(pyrimidin-2-yl)-1H-imidazol-5-yl)methanone] |  |  | > 100 | 10 to 100
16 | Cc1nn(-c2ncccn2)nc1C(=O)N1C[C@@H]2[C@H](C1)[C@H]2Oc1cc(C(C)(C)N)cc(-c2ccc(F)cc2)n1 [Example 76, ((1R,5S,6s)-6-((4-(2-aminopropan-2-yl)-6-(4-fluorophenyl)pyridin-2-yl)oxy)-3-azabicyclo[3.1.0]hexan-3-yl)(5-methyl-2-(pyrimidin-2-yl)-2H-1,2,3-triazol-4-yl)methanone] |  |  | > 100 | 10 to 100
